Measured values from US6613747B2, “6-O-carbamoyl ketolide antibacterials” (Ortho-McNeil Pharmaceutical, Inc., priority 2000, dated 2003).
Converted amounts (≈) assume the structure as drawn. Read-outs that look alike come from different tables or passages of the source.

Legend:
Test in all cases: MIC, microdilution broth method (NCCLS)
Format in all cases: cell-based
[1] = system: S. pneumoniae ATCC49619; conditions: D: S. pneumoniae ATCC49619, 35° C., 16-20 hours
How it was run: (§1)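 Broth microdilution per NCCLS M7-A4: cation-adjusted Mueller-Hinton broth, two-fold drug dilutions, inoculum ~5×10^4 CFU/well, 35° C., 16-20 h; MIC read against no-compound growth controls.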

[2] = system: H. influenzae ATCC49247; conditions: E: H. influenzae ATCC49247, 35° C., 16-20 hours
How it was run: as §1

[3] = system: E. coli OC2605; conditions: A: E. coli OC2605, 35° C., 16-20 hours
How it was run: as §1

[4] = system: E. faecalis ATCC29212; conditions: C: E. faecalis ATCC29212, 35° C., 16-20 hours
How it was run: as §1

[5] = system: S. aureus ATCC29213; conditions: B: S. aureus ATCC29213, 35° C., 16-20 hours
How it was run: as §1

| Structure (SMILES) | MIC [1] | MIC [2] [µg/mL] | MIC [3] [µg/mL] | MIC [4] | MIC [5] [µg/mL] | MIC ([1]; Streptococcus pneumoniae, read-out: MIC) [µg/mL] | MIC ([2]; Haemophilus influenzae, read-out: MIC) [µg/mL] | MIC ([3]; Escherichia coli, read-out: MIC) [µg/mL] | MIC ([4]; Enterococcus faecalis, read-out: MIC) [µg/mL] | MIC ([5]; Staphylococcus aureus, read-out: MIC) [µg/mL] |
| --- | --- | --- | --- | --- | --- | --- | --- | --- | --- | --- |
| CC[C@H]1OC(=O)[C@H](C)C(=O)[C@H](C)[C@@H](O[C@@H]2O[C@H](C)C[C@H](N(C)C)[C@H]2O)[C@](C)(OC(=O)NCc2ccc(-c3ccccn3)s2)C[C@@H](C)C(=O)[C@H](C)[C@H]2NC(=O)O[C@@]21C [Compound 56] | ≦0.015 μg/mL | 2 (≈ 2.45 µM) | 8 (≈ 9.82 µM) | 0.06 µg/mL (≈ 0.0736 µM) | 0.25 (≈ 0.307 µM) | – | – | – | – | – |
| CC[C@H]1OC(=O)[C@H](C)C(=O)[C@H](C)[C@@H](O[C@@H]2O[C@H](C)C[C@H](N(C)C)[C@H]2O)[C@](C)(OC(=O)NC/C=C/c2ccc(-c3ccccn3)s2)C[C@@H](C)C(=O)[C@H](C)[C@H]2NC(=O)O[C@@]21C [Compound 57] | 0.03 µg/mL (≈ 0.0357 µM) | 2 (≈ 2.38 µM) | 16 (≈ 19 µM) | 0.12 µg/mL (≈ 0.143 µM) | 0.25 (≈ 0.297 µM) | – | – | – | – | – |
| CC[C@H]1OC(=O)[C@H](C)C(=O)[C@H](C)[C@@H](O[C@@H]2O[C@H](C)C[C@H](N(C)C)[C@H]2O)[C@](C)(OC(=O)NC/C=C/c2ccc(-n3cccn3)c(F)c2)C[C@@H](C)C(=O)[C@H](C)[C@H]2NC(=O)O[C@@]21C [Compound 58] | 0.06 µg/mL (≈ 0.0713 µM) | 4 (≈ 4.75 µM) | >16 | 0.12 µg/mL (≈ 0.143 µM) | 0.25 (≈ 0.297 µM) | – | – | – | – | – |
| CC[C@H]1OC(=O)[C@H](C)C(=O)[C@H](C)[C@@H](O[C@@H]2O[C@H](C)C[C@H](N(C)C)[C@H]2O)[C@](C)(OC(=O)NCc2ccc(-n3cccn3)c(F)c2)C[C@@H](C)C(=O)[C@H](C)[C@H]2NC(=O)O[C@@]21C [Compound 59] | 0.03 µg/mL (≈ 0.0368 µM) | 4 (≈ 4.9 µM) | >16 | ≦0.25 μg/mL | 0.5 (≈ 0.613 µM) | – | – | – | – | – |
| CC[C@H]1OC(=O)[C@H](C)C(=O)[C@H](C)[C@@H](O[C@@H]2O[C@H](C)C[C@H](N(C)C)[C@H]2O)[C@](C)(OC(=O)NC/C=C/C=C/c2ccc(-n3cccn3)cc2)C[C@@H](C)C(=O)[C@H](C)[C@H]2NC(=O)O[C@@]21C [Compound 60] | 0.25 µg/mL (≈ 0.294 µM) | 8 (≈ 9.41 µM) | >16 | 0.5 µg/mL (≈ 0.588 µM) | 1 (≈ 1.18 µM) | – | – | – | – | – |
| CC[C@H]1OC(=O)[C@H](C)C(=O)[C@H](C)[C@@H](O[C@@H]2O[C@H](C)C[C@H](N(C)C)[C@H]2O)[C@](C)(OC(=O)NCc2cnn(-c3ccccc3)c2)C[C@@H](C)C(=O)[C@H](C)[C@H]2NC(=O)O[C@@]21C [Compound 61] | 0.03 µg/mL (≈ 0.0376 µM) | 2 (≈ 2.51 µM) | 16 (≈ 20.1 µM) | 0.06 µg/mL (≈ 0.0752 µM) | 0.5 (≈ 0.627 µM) | – | – | – | – | – |
| CC[C@H]1OC(=O)[C@H](C)C(=O)[C@H](C)[C@@H](O[C@@H]2O[C@H](C)C[C@H](N(C)C)[C@H]2O)[C@](C)(OC(=O)NC/C=C/c2cnn(-c3ccccc3)c2)C[C@@H](C)C(=O)[C@H](C)[C@H]2NC(=O)O[C@@]21C [Compound 62] | 0.06 µg/mL (≈ 0.0728 µM) | 4 (≈ 4.85 µM) | >16 | 0.12 µg/mL (≈ 0.146 µM) | 0.25 (≈ 0.303 µM) | – | – | – | – | – |
| CC[C@H]1OC(=O)[C@H](C)C(=O)[C@H](C)[C@@H](O[C@@H]2O[C@H](C)C[C@H](N(C)C)[C@H]2O)[C@](C)(OC(=O)NCc2ccc(-n3cc(C)cn3)cc2)C[C@@H](C)C(=O)[C@H](C)[C@H]2NC(=O)O[C@@]21C [Compound 64] | 0.03 µg/mL (≈ 0.0369 µM) | 4 (≈ 4.93 µM) | >16 | 0.12 µg/mL (≈ 0.148 µM) | 1 (≈ 1.23 µM) | – | – | – | – | – |
| CC[C@H]1OC(=O)[C@H](C)C(=O)[C@H](C)[C@@H](O[C@@H]2O[C@H](C)C[C@H](N(C)C)[C@H]2O)[C@](C)(OC(=O)NCc2cccc(-c3ncccn3)c2)C[C@@H](C)C(=O)[C@H](C)[C@H]2NC(=O)O[C@@]21C [Compound 65] | 0.06 µg/mL (≈ 0.0741 µM) | 8 (≈ 9.88 µM) | >16 | 0.25 µg/mL (≈ 0.309 µM) | 2 (≈ 2.47 µM) | – | – | – | – | – |
| CC[C@H]1OC(=O)[C@H](C)C(=O)[C@H](C)[C@@H](O[C@@H]2O[C@H](C)C[C@H](N(C)C)[C@H]2O)[C@](C)(OC(=O)NC/C=C/c2cccc(-c3ncccn3)c2)C[C@@H](C)C(=O)[C@H](C)[C@H]2NC(=O)O[C@@]21C [Compound 66] | 0.06 µg/mL (≈ 0.0718 µM) | 4 (≈ 4.78 µM) | >16 | 0.12 µg/mL (≈ 0.144 µM) | 0.5 (≈ 0.598 µM) | – | – | – | – | – |
| CC[C@H]1OC(=O)[C@H](C)C(=O)[C@H](C)[C@@H](O[C@@H]2O[C@H](C)C[C@H](N(C)C)[C@H]2O)[C@](C)(OC(=O)NC/C=C/c2ccc(-n3cc(C)cn3)cc2)C[C@@H](C)C(=O)[C@H](C)[C@H]2NC(=O)O[C@@]21C [Compound 67] | 0.06 µg/mL (≈ 0.0716 µM) | 4 (≈ 4.77 µM) | >16 | 0.25 µg/mL (≈ 0.298 µM) | 0.25 (≈ 0.298 µM) | – | – | – | – | – |
| CC[C@H]1OC(=O)[C@H](C)C(=O)[C@H](C)[C@@H](O[C@@H]2O[C@H](C)C[C@H](N(C)C)[C@H]2O)[C@](C)(OC(=O)NC/C=C/c2ccc(-c3nccc(C)n3)cc2)C[C@@H](C)C(=O)[C@H](C)[C@H]2NC(=O)O[C@@]21C [Compound 68] | 0.03 µg/mL (≈ 0.0353 µM) | 4 (≈ 4.71 µM) | >16 | 0.12 µg/mL (≈ 0.141 µM) | 0.25 (≈ 0.294 µM) | – | – | – | – | – |
| CC[C@H]1OC(=O)[C@H](C)C(=O)[C@H](C)[C@@H](O[C@@H]2O[C@H](C)C[C@H](N(C)C)[C@H]2O)[C@](C)(OC(=O)NCc2ccc(-c3nccc(C)n3)cc2)C[C@@H](C)C(=O)[C@H](C)[C@H]2NC(=O)O[C@@]21C [Compound 69] | 0.03 µg/mL (≈ 0.0364 µM) | 8 (≈ 9.71 µM) | >16 | 0.12 µg/mL (≈ 0.146 µM) | 0.5 (≈ 0.607 µM) | – | – | – | – | – |
| CC[C@H]1OC(=O)[C@H](C)C(=O)[C@H](C)[C@@H](O[C@@H]2O[C@H](C)C[C@H](N(C)C)[C@H]2O)[C@](C)(OC(=O)NCc2ccc(-c3nccc(OC)n3)cc2)C[C@@H](C)C(=O)[C@H](C)[C@H]2NC(=O)O[C@@]21C [Compound 70] | 0.03 µg/mL (≈ 0.0357 µM) | 4 (≈ 4.76 µM) | 16 (≈ 19 µM) | 0.12 µg/mL (≈ 0.143 µM) | 0.25 (≈ 0.298 µM) | – | – | – | – | – |
| CC[C@H]1OC(=O)[C@H](C)C(=O)[C@H](C)[C@@H](O[C@@H]2O[C@H](C)C[C@H](N(C)C)[C@H]2O)[C@](C)(OC(=O)NC/C=C/c2ccc(-c3nccc(OC)n3)cc2)C[C@@H](C)C(=O)[C@H](C)[C@H]2NC(=O)O[C@@]21C [Compound 71] | 0.06 µg/mL (≈ 0.0693 µM) | 4 (≈ 4.62 µM) | >16 | 0.12 µg/mL (≈ 0.139 µM) | 0.25 (≈ 0.289 µM) | – | – | – | – | – |
| CC[C@H]1OC(=O)[C@H](C)C(=O)[C@H](C)[C@@H](O[C@@H]2O[C@H](C)C[C@H](N(C)C)[C@H]2O)[C@](C)(OC(=O)NC/C=C/c2ccc(Br)nc2)C[C@@H](C)C(=O)[C@H](C)[C@H]2NC(=O)O[C@@]21C [Compound 72] | ≦0.015 μg/mL | 2 (≈ 2.39 µM) | 8 (≈ 9.55 µM) | 0.06 µg/mL (≈ 0.0716 µM) | 0.25 (≈ 0.298 µM) | – | – | – | – | – |
| CC[C@H]1OC(=O)[C@H](C)C(=O)[C@H](C)[C@@H](O[C@@H]2O[C@H](C)C[C@H](N(C)C)[C@H]2O)[C@](C)(OC(=O)NCc2ccc(-n3cccn3)cc2F)C[C@@H](C)C(=O)[C@H](C)[C@H]2NC(=O)O[C@@]21C [Compound 73] | 0.03 µg/mL (≈ 0.0368 µM) | 2 (≈ 2.45 µM) | 16 (≈ 19.6 µM) | 0.06 µg/mL (≈ 0.0735 µM) | 0.5 (≈ 0.613 µM) | – | – | – | – | – |
| CC[C@H]1OC(=O)[C@H](C)C(=O)[C@H](C)[C@@H](O[C@@H]2O[C@H](C)C[C@H](N(C)C)[C@H]2O)[C@](C)(OC(=O)NC/C=C/c2ccc(-n3cccn3)cc2F)C[C@@H](C)C(=O)[C@H](C)[C@H]2NC(=O)O[C@@]21C [Compound 74] | ≦0.015 μg/mL | 1 (≈ 1.19 µM) | 16 (≈ 19 µM) | 0.06 µg/mL (≈ 0.0713 µM) | 0.06 (≈ 0.0713 µM) | – | – | – | – | – |
| CCC1OC(=O)C(C)(F)C(=O)C(C)C(OC2OC(C)CC(N(C)C)C2O)C(C)(OC(=O)NCC=Cc2ccc(-c3ncccn3)cc2)CC(C)C(=O)C(C)C2NC(=O)OC12C (stereo not drawn) [Compound 75] | 0.03 µg/mL (≈ 0.0351 µM) | 4 (≈ 4.68 µM) | >16 | 0.12 µg/mL (≈ 0.141 µM) | 0.25 (≈ 0.293 µM) | – | – | – | – | – |
| CC[C@H]1OC(=O)[C@H](C)C(=O)[C@H](C)[C@@H](O[C@@H]2O[C@H](C)C[C@H](N(C)C)[C@H]2O)[C@](C)(OC(=O)NCc2ccc(-c3cnccn3)cc2)C[C@@H](C)C(=O)[C@H](C)[C@H]2NC(=O)O[C@@]21C [Compound 76] | ≦0.015 μg/mL | 2 (≈ 2.47 µM) | 16 (≈ 19.8 µM) | 0.06 µg/mL (≈ 0.0741 µM) | 0.25 (≈ 0.309 µM) | – | – | – | – | – |
| CC[C@H]1OC(=O)[C@H](C)C(=O)[C@H](C)[C@@H](O[C@@H]2O[C@H](C)C[C@H](N(C)C)[C@H]2O)[C@](C)(OC(=O)NC/C=C/c2ccc(-c3cnccn3)cc2)C[C@@H](C)C(=O)[C@H](C)[C@H]2NC(=O)O[C@@]21C [Compound 77, Carbamic acid, [(2E)-3-(4-pyrazinylphenyl)-2-propenyl]-, (3aS,4R,7R,9R,10R,11R,13R,15R,15aR)-4-ethyltetradecahydro-3a,7,9,11,13,15-hexamethyl-2,6,8,14-tetraoxo-10-[[3,4,6-trideoxy-3-(dimethylamino)-β-D-xylo-hexopyranosyl]oxy]-2H-oxacyclotetradecino[4,3-d]oxazol-11-yl ester] | – | – | – | – | – | 0.03 (≈ 0.0359 µM) | 4 (≈ 4.78 µM) | 16 (≈ 19.1 µM) | 0.12 (≈ 0.144 µM) | 0.12 (≈ 0.144 µM) |
